Tests used:
Experiment in all cases: periodate / malachite green phosphate assay, Lineweaver-Burk
Format in all cases: biochemical, synthetic construct
[1] = tested on: T1, ATM_T1; conditions: 15 mM NH4Cl, 10 mM imidazole-HCl pH 7.8, 90 °C (Topt)
T1 construct: reconstructed node T ancestor, one of four (125/126 Ser/Lys or Thr/Glu); gene by GenScript, pBAD TOPO, E. coli TOP10
Source text: periodate / malachite green phosphate assay, Lineweaver-Burk on ATM_T1

[2] = tested on: T2, ATM_T2; conditions: 15 mM NH4Cl, 10 mM imidazole-HCl pH 7.8, 83 °C (Topt)
T2 construct: reconstructed node T ancestor, one of four (125/126 Ser/Lys or Thr/Glu); gene by GenScript, pBAD TOPO, E. coli TOP10
Source text: periodate / malachite green phosphate assay, Lineweaver-Burk on ATM_T2

[3] = tested on: T3, ATM_T4; conditions: 15 mM NH4Cl, 10 mM imidazole-HCl pH 7.8, 83 °C (Topt)
T3 construct: reconstructed node T ancestor, one of four (125/126 Ser/Lys or Thr/Glu); gene by GenScript, pBAD TOPO, E. coli TOP10
Source text: periodate / malachite green phosphate assay, Lineweaver-Burk on ATM_T4

[4] = tested on: T4, ATM_T3; conditions: 15 mM NH4Cl, 10 mM imidazole-HCl pH 7.8, 85 °C (Topt)
T4 construct: reconstructed node T ancestor, one of four (125/126 Ser/Lys or Thr/Glu); gene by GenScript, pBAD TOPO, E. coli TOP10
Source text: periodate / malachite green phosphate assay, Lineweaver-Burk on ATM_T3

[5] = tested on: T5, ACM_C2; conditions: 15 mM NH4Cl, 10 mM imidazole-HCl pH 7.8, 95 °C (Topt)
T5 construct: gene by GenScript, pBAD TOPO, E. coli TOP10
Source text: periodate / malachite green phosphate assay, Lineweaver-Burk on ACM_C2

[6] = tested on: T6, ACM_C1; conditions: 15 mM NH4Cl, 10 mM imidazole-HCl pH 7.8, 95 °C (Topt)
T6 construct: gene by GenScript, pBAD TOPO, E. coli TOP10
Source text: periodate / malachite green phosphate assay, Lineweaver-Burk on ACM_C1

[7] = tested on: T7, AAM_A2; conditions: 15 mM NH4Cl, 10 mM imidazole-HCl pH 7.8, 99 °C (Topt)
T7 construct: gene by GenScript, pBAD TOPO, E. coli TOP10
Source text: periodate / malachite green phosphate assay, Lineweaver-Burk on AAM_A2

[8] = tested on: T8, AAM_A1; conditions: 15 mM NH4Cl, 10 mM imidazole-HCl pH 7.8, 99 °C (Topt)
T8 construct: gene by GenScript, pBAD TOPO, E. coli TOP10
Source text: periodate / malachite green phosphate assay, Lineweaver-Burk on AAM_A1

O=P(O)(O)OC[C@H]1OC(O)[C@H](O)[C@@H](O)[C@@H]1O (some centres unmarked) [glucose-6-phosphate]
Km [1]: 630 ± 100 µM
Km [2]: 460 ± 80 µM
Km [3]: 600 ± 60 µM
Km [4]: 540 ± 150 µM
Km [5]: 6.27 ± 1.94 mM
Km [6]: 2.34 ± 0.46 mM
Km [7]: 1.32 ± 0.11 mM
Km [8]: 2.77 ± 0.6 mM

Source: paper PMC3877268, “Reconstructed Ancestral Myo-Inositol-3-Phosphate Synthases Indicate That Ancestors of the Thermococcales and Thermotoga Species Were More Thermophilic than Their Descendants” (PLoS ONE, 2013)
